Laboratory results: ChEMBL document CHEMBL2429798, “Antioxidant effectiveness generated by one or two phenolic hydroxyl groups in coumarin-substituted dihydropyrazoles” (Eur J Med Chem, 2013)
Calls of active or inactive are those of the source. The calls are words filed in the database; no cut-off is given here.

What was measured:
Format in all cases: functional
[1] = tested on: Radical scavenging activity; assay: Antioxidant activity assessed as DPPH radical scavenging activity at 10 uM
[2] = Antioxidant activity assessed as inhibition of hydroxyl radical-induced oxidation of DNA at 0.2 mM after 30 mins by TBARS assay relative to control
[3] = Antioxidant activity assessed as ABTS radical scavenging activity at 5 uM
[4] = Antioxidant activity assessed as galvinoxyl radical scavenging activity at 15 uM
[5] = Antioxidant activity assessed as time required to inhibit AAPH-induced oxidation of DNA by TBARS assay
[6] = Antioxidant activity assessed as inhibition of Cu2+/GSH-induced oxidation of DNA at 0.2 mM measured every 30 mins by TBARS assay
[7] = Antioxidant activity assessed as inhibition of AAPH-induced oxidation of DNA at 1 to 400 uM measured every 2 hrs by TBARS assay

`O=c1oc2ccccc2cc1C1=NN(c2ccccc2)C(c2ccccc2O)C1` (stereo not drawn) showed a K [1] of 540 M⁻¹ s⁻¹, an inhibition [2] of 44.2% and a K [3] of 7440 M⁻¹ s⁻¹. It also gave a K [4] of 4350 M⁻¹ s⁻¹ and a TIME [5] of 0.0192 h.
In the case of `COc1ccc(C2CC(c3cc4ccccc4oc3=O)=NN2c2ccccc2)cc1` (stereo not drawn), the inhibition [2] is reported as 75.3%, the inhibition [6] is reported as “Active” and the inhibition [7] is reported as “inactive”.
In the case of `O=c1oc2ccccc2cc1C1=NN(c2ccccc2)C(c2cccc(O)c2)C1` (stereo not drawn), the K [1] is reported as 700 M⁻¹ s⁻¹, the inhibition [2] is reported as 66.4% and the K [3] is reported as 4310 M⁻¹ s⁻¹. It also gave a K [4] of 7230 M⁻¹ s⁻¹ and a TIME [5] of 0.016 h.
For `O=c1oc2ccccc2cc1C1=NN(c2ccccc2)C(c2ccc(O)cc2O)C1` (stereo not drawn), the K [1] was 3720 M⁻¹ s⁻¹, the inhibition [2] was 35.5% and the inhibition [6] was “Active”. For the same molecule, the K [3] was 24600 M⁻¹ s⁻¹, the K [4] was 7900 M⁻¹ s⁻¹ and the TIME [5] was 0.0343 h.
`O=c1oc2ccccc2cc1C1=NN(c2ccccc2)C(c2ccc(O)cc2)C1` (stereo not drawn) gave a K [1] of 2440 M⁻¹ s⁻¹, an inhibition [2] of 81.1% and a K [3] of 11200 M⁻¹ s⁻¹. For the same molecule, the K [4] was 5820 M⁻¹ s⁻¹ and the TIME [5] was 0.0173 h.
With `O=c1oc2ccccc2cc1C1=NN(c2ccccc2)C(c2ccccc2)C1` (stereo not drawn) the inhibition [2] was 67.8%, the inhibition [6] was “Active” and the inhibition [7] was “inactive”.
With `COc1cc(C2CC(c3cc4ccccc4oc3=O)=NN2c2ccccc2)ccc1O` (stereo not drawn) the K [1] was 2540 M⁻¹ s⁻¹, the inhibition [2] was 53.9% and the K [3] was 5990 M⁻¹ s⁻¹. For the same molecule, the K [4] was 6740 M⁻¹ s⁻¹ and the TIME [5] was 0.0313 h.
With `O=c1oc2ccccc2cc1C1=NN(c2ccccc2)C(c2ccc(O)c(O)c2)C1` (stereo not drawn) the K [1] was 8830 M⁻¹ s⁻¹, the inhibition [2] was 43.4% and the inhibition [6] was “Active”. The K [3] was 12900 M⁻¹ s⁻¹, the K [4] was 6920 M⁻¹ s⁻¹ and the TIME [5] was 0.0327 h.
